The numbers were not newly measured in US20240122889A1, “DRY POWDER COMPOSITIONS OF TREPROSTINIL PRODRUGS AND METHODS OF USE THEREOF” (Insmed Incorporated, priority 0001, published 2024), which cites them from elsewhere.

This series deals with conscious male guinea pigs.

On to `CCCCC[C@H](O)CC[C@@H]1[C@H]2Cc3cccc(OCC(=O)O)c3C[C@H]2C[C@H]1O` [TRE, Treprostinil], for which, where the note is “inhaled TRE given by nebulization”, the “Threshold dose that causes cough” value was 1.2 μg TRE/kg body weight. For the same compound, the Timing of cough (nebulized, time of exposure) is reported as ≤ 10 min.
